Assay results reported in patent US20060276464A1, “Diarylsulfone sulfonamides and use thereof” (Wyeth, priority 2005, published 2006).
Several values for one entry are separate records, joined by “and”; a condition that tells them apart may be missing. Identical values can stand only once. Like-named read-outs stand apart in the source and are kept apart here.

Experiments:
SFRP-1 [1] = molecular target: T1, SFRP-1 (Homo sapiens, UniProt Q8N474); experiment: Fluorescence polarization binding assay (competitive displacement of a probe compound from SFRP-1); settings: fluorescence anisotropy, 45 nM SFRP-1, 20 nM probe;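 note: test compound competes with a fluorescent probe held by SFRP-1, seen as a drop in probe anisotropy after incubation in darkness, with anisotropy as function of rising compound dose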
T1 sequence (Q8N474 32-314): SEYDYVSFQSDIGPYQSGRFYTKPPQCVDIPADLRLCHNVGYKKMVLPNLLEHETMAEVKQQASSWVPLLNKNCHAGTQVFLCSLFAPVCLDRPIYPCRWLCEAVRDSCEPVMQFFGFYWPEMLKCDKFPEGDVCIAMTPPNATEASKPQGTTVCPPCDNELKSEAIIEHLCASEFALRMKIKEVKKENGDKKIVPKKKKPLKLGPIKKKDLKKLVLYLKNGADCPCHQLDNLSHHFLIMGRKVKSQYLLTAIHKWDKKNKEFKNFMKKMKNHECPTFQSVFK

SFRP-1 [2] = molecular target: T1, SFRP-1; experiment: Cell-based assay for in vitro measurement of SFRP-1/SARP2 antagonist activity (U2OS cells co-transfected with 16x TCF-tk-Luciferase reporter, Wnt and hSFRP-1); settings: for fold induction at 10 µM / fold induction at 15 µM: U2OS; for fold induction at 10 µM: read-out: Fold Induction with SFRP-1, U2OS cells, single dose 10 μM, luciferase reporter, fold induction over SFRP-1 control;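 for all read-outs here: U2OS cells co-transfected with a TCF-tk luciferase reporter, a Wnt vector, hSFRP-1 or empty vector and CMV-βgal, luciferase luminescence read in cell lysates alongside βgal activity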
[3] = read-out: Fold Induction with SFRP-1, Conc 15 μM, with SFRP-1, fold induction over SFRP-1 control, single dose
[4] = read-out: Fold Induction without SFRP-1, Conc 15 μM, without SFRP-1, single dose
[5] = read-out: Fold Induction with SFRP-1, Conc 15 μM, single dose, luciferase reporter, fold induction over SFRP-1 control, cells with SFRP-1
[6] = read-out: Fold Induction without SFRP-1, Conc 15 μM, single dose, luciferase reporter, cells without SFRP-1 (specificity control)

`CN(CCNS(=O)(=O)c1cc(S(=O)(=O)c2ccccc2)ccc1C(F)(F)F)C(=O)c1ccc(C(C)(C)C)cc1` [Example 838, 4-tert-Butyl-N-methyl-N-[2-({[5-(phenylsulfonyl)-2-(trifluoromethyl)phenyl]sulfonyl}amino)ethyl]benzamide] gave an IC50 (SFRP-1 [1]) of 1200 nM and a fold induction at 10 µM (SFRP-1 [2]) of 2.5.

Compound `N#Cc1ccc(C(=O)N2CCC(NS(=O)(=O)c3cc(S(=O)(=O)c4ccccc4)ccc3Cl)CC2)cc1` [Example 657, 2-chloro-N-[1-(4-cyanobenzoyl)piperidin-4-yl]-5-(phenylsulfonyl)benzenesulfonamide] has an IC50 (SFRP-1 [1]) of 2400 nM, an EC50 (SFRP-1 [2]) of 9030 nM and a fold induction at 10 µM (SFRP-1 [2]) of 2.4.

For `O=S(=O)(NC1CCN(S(=O)(=O)c2ccc(O)cc2)CC1)c1cc(S(=O)(=O)c2ccccc2)ccc1C(F)(F)F` [Example 914, N-{1-[(4-hydroxyphenyl)sulfonyl]piperidin-4-yl}-5-(phenylsulfonyl)-2-(trifluoromethyl)benzenesulfonamide], the IC50 (SFRP-1 [1]) was 80 nM, the EC50 (SFRP-1 [2]) was 541 nM and the fold induction at 10 µM (SFRP-1 [2]) was 4.5.

`O=S(=O)(N[C@H]1CCNC1)c1cc(S(=O)(=O)c2ccccc2)ccc1C(F)(F)F` [Example 796, 5-(phenylsulfonyl)-N-[(3S)-pyrrolidin-3-yl]-2-(trifluoromethyl)benzenesulfonamide] showed an IC50 (SFRP-1 [1]) of 600 nM, an EC50 (SFRP-1 [2]) of 1350 nM and a fold induction at 10 µM (SFRP-1 [2]) of 4.3.

Compound `CCC(O)CNc1ccc(S(=O)(=O)c2ccc(C)c(S(=O)(=O)NCCCn3ccnc3)c2)cc1` (stereo not shown) [Example 373, 5-({4-[(2-hydroxybutyl)amino]phenyl}sulfonyl)-N-[3-(1H-imidazol-1-yl)propyl]-2-methylbenzenesulfonamide] has an IC50 (SFRP-1 [1]) of 1100 nM, a fold induction at 15 µM (SFRP-1 [2]; [3]) of 2.8 and a fold induction at 15 µM (SFRP-1 [2]; [4]) of 1.

With `O=S(=O)(NCCC1CCCN1)c1cc(S(=O)(=O)c2ccccc2)ccc1C(F)(F)F` (stereo not shown) [Example 913, 5-(phenylsulfonyl)-N-(2-pyrrolidin-2-ylethyl)-2-(trifluoromethyl)benzenesulfonamide] the IC50 (SFRP-1 [1]) was 3000 nM, the EC50 (SFRP-1 [2]) was 7010 nM and the fold induction at 10 µM (SFRP-1 [2]) was 3.1.

`Cc1ccc(S(=O)(=O)c2ccccc2)cc1S(=O)(=O)NC1CCN(C(=O)c2cccnc2)CC1` [Example 516, 2-methyl-5-(phenylsulfonyl)-N-[1-(pyridin-3-ylcarbonyl)piperidin-4-yl]benzenesulfonamide] was tested, and the IC50 (SFRP-1 [1]) was 2600 nM, the fold induction at 15 µM (SFRP-1 [2]; [5]) was 3 and the fold induction at 15 µM (SFRP-1 [2]; [6]) was 1.

For `O=C(c1c(F)cc(F)cc1F)N1CCC(NS(=O)(=O)c2cc(S(=O)(=O)c3ccccc3)ccc2C(F)(F)F)CC1` [Example 717, 5-(phenylsulfonyl)-N-[1-(2,4,6-trifluorobenzoyl)piperidin-4-yl]-2-(trifluoromethyl)benzenesulfonamide], the IC50 (SFRP-1 [1]) was 170 nM, the EC50 (SFRP-1 [2]) was 1290 nM and the fold induction at 10 µM (SFRP-1 [2]) was 5.3.

`CC(C)c1ccc(S(=O)(=O)c2ccccc2)cc1S(=O)(=O)NCC(O)c1ccccn1` (stereo not shown) [Example 728, N-(2-hydroxy-2-pyridin-2-ylethyl)-2-isopropyl-5-(phenylsulfonyl)benzene-sulfonamide] showed an IC50 (SFRP-1 [1]) of 4000 nM and a fold induction at 10 µM (SFRP-1 [2]) of 3.1.

`CC(C)c1ccc(S(=O)(=O)c2ccc(F)cc2)cc1S(=O)(=O)NC1CCN(C(=O)N(C)C)CC1` [Example 573, 4-[({5-[(4-fluorophenyl)sulfonyl]-2-isopropylphenyl}sulfonyl)amino]-N,N-dimethylpiperidine-1-carboxamide] showed an IC50 (SFRP-1 [1]) of 600 nM, a fold induction at 15 µM (SFRP-1 [2]; [5]) of 2.1 and a fold induction at 15 µM (SFRP-1 [2]; [6]) of 1.1.

With `Cc1ccc(S(=O)(=O)c2ccccc2)cc1S(=O)(=O)NC1CCN(C(=O)CC(C)(C)C)CC1` [Example 504, N-[1-(3,3-dimethylbutanoyl)piperidin-4-yl]-2-methyl-5-(phenylsulfonyl)benzenesulfonamide] the IC50 (SFRP-1 [1]) was 4000 nM, the fold induction at 15 µM (SFRP-1 [2]; [5]) was 2.2 and the fold induction at 15 µM (SFRP-1 [2]; [6]) was 1.

`CNc1ccc(S(=O)(=O)c2ccc(C(C)C)c(S(=O)(=O)NCCc3ccccn3)c2)cc1` [Example 357, 2-isopropyl-5-{[4-(methylamino)phenyl]sulfonyl}-N-(2-pyridin-2-ylethyl)benzenesulfonamide] showed an IC50 (SFRP-1 [1]) of 300 nM, a fold induction at 15 µM (SFRP-1 [2]; [3]) of 4.2 and a fold induction at 15 µM (SFRP-1 [2]; [4]) of 1.1.

Compound `CC(C)c1ccc(S(=O)(=O)c2ccc(F)cc2)cc1S(=O)(=O)NC1CCN(C(=S)Nc2cccc3ccccc23)CC1` [Example 690, 4-[({5-[(4-fluorophenyl)sulfonyl]-2-isopropylphenyl}sulfonyl)amino]-N-1-naphthylpiperidine-1-carbothioamide] has an IC50 (SFRP-1 [1]) of 3000 nM, an EC50 (SFRP-1 [2]) of 8400 nM and a fold induction at 10 µM (SFRP-1 [2]) of 2.3.

In the case of `CC(C)(C)c1ccc(C(=O)N2CCC(NS(=O)(=O)c3cc(S(=O)(=O)c4cccc(O)c4)ccc3C(F)(F)F)CC2)cc1` [Example 764, N-[1-(4-tert-butylbenzoyl)piperidin-4-yl]-5-[(3-hydroxyphenyl)sulfonyl]-2-(trifluoromethyl)benzenesulfonamide], the IC50 (SFRP-1 [1]) is reported as 270 nM, the EC50 (SFRP-1 [2]) is reported as 463 nM and the fold induction at 10 µM (SFRP-1 [2]) is reported as 0.6.

`CC(C)c1ccc(S(=O)(=O)c2ccc(F)cc2)cc1S(=O)(=O)NCC1CCOCC1` [Example 445, 5-[(4-fluorophenyl)sulfonyl]-2-isopropyl-N-(tetrahydro-2H-pyran-4-ylmethyl)benzenesulfonamide] gave an IC50 (SFRP-1 [1]) of 1100 nM, a fold induction at 15 µM (SFRP-1 [2]; [3]) of 2.9 and a fold induction at 15 µM (SFRP-1 [2]; [4]) of 1.2.

`Cc1ccc(C(=O)N2CCC(NS(=O)(=O)c3cc(S(=O)(=O)c4ccccc4)ccc3C)CC2)cc1` [Example 468, 2-methyl-N-[1-(4-methylbenzoyl)piperidin-4-yl]-5-(phenylsulfonyl)benzenesulfonamide] was tested, and the IC50 (SFRP-1 [1]) was 1000 nM, the fold induction at 15 µM (SFRP-1 [2]; [3]) was 2 and the fold induction at 15 µM (SFRP-1 [2]; [4]) was 1.2.

`CC(C)c1ccc(S(=O)(=O)c2ccc(F)cc2)cc1S(=O)(=O)NC1CCN(C(=O)C2CC2)CC1` [Example 530, N-[1-(cyclopropylcarbonyl)piperidin-4-yl]-5-[(4-fluorophenyl)sulfonyl]-2-isopropylbenzenesulfonamide] showed an IC50 (SFRP-1 [1]) of 700 nM, a fold induction at 15 µM (SFRP-1 [2]; [5]) of 3 and a fold induction at 15 µM (SFRP-1 [2]; [6]) of 1.

`CC(C)c1ccc(S(=O)(=O)c2ccc(N3CCN(C)CC3)cc2)cc1S(=O)(=O)NC1CCOCC1` [Example 547, 2-isopropyl-5-{[4-(4-methylpiperazin-1-yl)phenyl]sulfonyl}-N-(tetrahydro-2H-pyran-4-yl)benzenesulfonamide] was tested, and the IC50 (SFRP-1 [1]) was 1000 nM and 2500 nM, the fold induction at 15 µM (SFRP-1 [2]; [5]) was 3.7 and the fold induction at 15 µM (SFRP-1 [2]; [6]) was 1.3.

`COc1cccc(S(=O)(=O)c2ccc(C)c(S(=O)(=O)NCCc3ccccn3)c2)c1OC` [Example 422, 5-[(2,3-dimethoxyphenyl)sulfonyl]-2-methyl-N-(2-pyridin-2-ylethyl)benzenesulfonamide] was tested, and the IC50 (SFRP-1 [1]) was 2800 nM, the fold induction at 15 µM (SFRP-1 [2]; [3]) was 1.9 and the fold induction at 15 µM (SFRP-1 [2]; [4]) was 1.2.

Compound `CN(CCNS(=O)(=O)c1cc(S(=O)(=O)c2ccccc2)ccc1C(F)(F)F)CCC(=O)OC(C)(C)C` [Example 961, tert-butyl N-methyl-N-[2-({[5-(phenylsulfonyl)-2-(trifluoromethyl)phenyl]sulfonyl}amino)ethyl]-[…]-alaninate] has an IC50 (SFRP-1 [1]) of 4000 nM, an EC50 (SFRP-1 [2]) of 2550 nM and a fold induction at 10 µM (SFRP-1 [2]) of 2.8.

With `Cc1ccc(S(=O)(=O)c2ccc(F)cc2)cc1S(=O)(=O)NCCN1CCOCC1` [Example 169, 5-[(4-fluorophenyl)sulfonyl]-2-methyl-N-(2-morpholin-4-ylethyl)benzenesulfonamide] the IC50 (SFRP-1 [1]) was 13000 nM, the fold induction at 15 µM (SFRP-1 [2]; [3]) was 2.6 and the fold induction at 15 µM (SFRP-1 [2]; [4]) was 0.9.
